Data from PubChem BioAssay AID212 (DTP/NCI, 2004).
Where “and” joins values, the source holds several entries; their conditions need not be identical. Equal entries are not always repeated. Inconclusive results are not listed.

System: BDF1 mice, colon carcinoma 38 sc, T/C %
Assay: NCI In Vivo Anticancer Drug Screen. Data for tumor model Colon Carcinoma 38 (subcutaneous) in B6D2F1 (BDF1) mice
In short: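 Ratio of survival or tumor size, compound-treated animals relative to vehicle controls, in tumor-bearing mice.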

[1] = endpoint: median tumor weight (est.), dose: 12.5 mg/kg/injection, schedule: Q07DX002 (ip), vehicle: saline with Tween-80, higher = larger tumour

CCC(C)(OC(C)=O)C(=O)OC1C(=O)OC2CC3C(C)=CC(O)C(O)C3(C)C3C4(O)OCC23C1C(C)C4O (stereo unspecified) was tested, and the T/C (endpoint: median tumor weight (est.), dose: 0.12 mg/kg/injection, schedule: Q07DX002 (ip), vehicle: saline + alcohol, higher = larger tumour) was 80 % of control, the T/C (endpoint: median tumor weight (est.), dose: 0.25 mg/kg/injection, schedule: Q07DX002 (ip), vehicle: saline + alcohol, higher = larger tumour) was 48 % of control and the T/C (endpoint: median tumor weight (est.), dose: 0.5 mg/kg/injection, schedule: Q07DX002 (ip), vehicle: saline + alcohol, higher = larger tumour) was 79 % of control. The T/C (endpoint: median tumor weight (est.), dose: 1.0 mg/kg/injection, schedule: Q07DX002 (ip), vehicle: saline + alcohol, higher = larger tumour) was 43 % of control, the T/C (endpoint: median tumor weight (est.), dose: 2.0 mg/kg/injection, schedule: Q07DX002 (ip), vehicle: saline + alcohol, higher = larger tumour) was 75 % of control and the T/C (endpoint: median tumor weight (est.), dose: 4.0 mg/kg/injection, schedule: Q07DX002 (ip), vehicle: saline + alcohol, higher = larger tumour) was 105 % of control.

OC(CBr)C(O)C(O)C(O)CBr (stereo unspecified) was tested, and the T/C (endpoint: median tumor weight (est.), dose: 25.0 mg/kg/injection, schedule: Q07DX002 (ip), vehicle: Klucel (hydroxypropylcellulose) (HPC), higher = larger tumour) was 56 % of control, the T/C (endpoint: median tumor weight (est.), dose: 25.0 mg/kg/injection, schedule: Q07DX003 (ip), vehicle: saline with Tween-80, higher = larger tumour) was 85 % of control and the T/C (endpoint: median tumor weight (est.), dose: 50.0 mg/kg/injection, schedule: Q07DX002 (ip), vehicle: Klucel (hydroxypropylcellulose) (HPC), higher = larger tumour) was 103 % of control. The T/C (endpoint: median tumor weight (est.), dose: 50.0 mg/kg/injection, schedule: Q07DX003 (ip), vehicle: Klucel (hydroxypropylcellulose) (HPC), higher = larger tumour) was 75 % of control, the T/C (endpoint: median tumor weight (est.), dose: 100.0 mg/kg/injection, schedule: Q07DX003 (ip), vehicle: Klucel (hydroxypropylcellulose) (HPC), higher = larger tumour) was 122 % of control and the T/C (endpoint: median tumor weight (est.), dose: 200.0 mg/kg/injection, schedule: Q07DX003 (ip), vehicle: Klucel (hydroxypropylcellulose) (HPC), higher = larger tumour) was 32 % of control. For the same compound, the T/C (endpoint: median tumor weight (est.), dose: 200.0 mg/kg/injection, schedule: Q07DX003 (ip), vehicle: saline with Tween-80, higher = larger tumour) was 123 % of control, the T/C (endpoint: median tumor weight (est.), dose: 400.0 mg/kg/injection, schedule: Q07DX003 (ip), vehicle: Klucel (hydroxypropylcellulose) (HPC), higher = larger tumour) was 7 % of control and the T/C (endpoint: median tumor weight (est.), dose: 400.0 mg/kg/injection, schedule: Q07DX003 (ip), vehicle: saline with Tween-80, higher = larger tumour) was 105 % of control.

With CC[C@@]1(O)C(=O)OCc2c1cc1n(c2=O)Cc2cc3cc(O)ccc3nc2-1 the T/C (endpoint: median tumor weight (est.), dose: 0.75 mg/kg/injection, schedule: Q07DX002 (ip), vehicle: saline, higher = larger tumour) was 92 % of control, the T/C (endpoint: median tumor weight (est.), dose: 1.5 mg/kg/injection, schedule: Q07DX002 (ip), vehicle: saline, higher = larger tumour) was 92 % of control and the T/C (endpoint: median tumor weight (est.), dose: 3.0 mg/kg/injection, schedule: Q07DX002 (ip), vehicle: saline, higher = larger tumour) was 91 % of control. For the same compound, the T/C (endpoint: median tumor weight (est.), dose: 6.0 mg/kg/injection, schedule: Q07DX002 (ip), vehicle: saline, higher = larger tumour) was 67 % of control and the T/C (endpoint: median tumor weight (est.), dose: 12.0 mg/kg/injection, schedule: Q07DX002 (ip), vehicle: saline, higher = larger tumour) was 81 % of control.

In the case of CCCCCCCCCCCC(=O)NC1CC(O[C@H]2C[C@](O)(C(=O)CO)Cc3c(O)c4c(c(O)c32)C(=O)c2c(OC)cccc2C4=O)OC(C)C1O (stereo partly specified), the T/C (endpoint: median survival time, dose: 17.0 mg/kg/injection, schedule: Q07DX003 (iv), vehicle: saline, higher = longer survival) was 97 % of control, the T/C (endpoint: median survival time, dose: 43.0 mg/kg/injection, schedule: Q07DX003 (iv), vehicle: saline, higher = longer survival) was 123 % of control and the T/C (endpoint: median survival time, dose: 70.0 mg/kg/injection, schedule: Q07DX003 (iv), vehicle: saline, higher = longer survival) was 103 % of control. The T/C (endpoint: median tumor weight (est.), dose: 28.7 mg/kg/injection, schedule: Q07DX002 (ip), vehicle: distilled water + Tween-80, higher = larger tumour) was 96 % of control and the T/C (endpoint: median tumor weight (est.), dose: 56.3 mg/kg/injection, schedule: Q07DX002 (ip), vehicle: distilled water + Tween-80, higher = larger tumour) was 101 % of control.

In the case of C=C(OP(=O)(OC)OC)Sc1ccccc1C, the T/C (endpoint: median tumor weight (est.), dose: 0.18 mg/kg/injection, schedule: Q07DX002 (ip), vehicle: Klucel (hydroxypropylcellulose) (HPC), higher = larger tumour) was 112 % of control, the T/C (endpoint: median tumor weight (est.), dose: 0.37 mg/kg/injection, schedule: Q07DX002 (ip), vehicle: Klucel (hydroxypropylcellulose) (HPC), higher = larger tumour) was 59 % of control and the T/C (endpoint: median tumor weight (est.), dose: 0.75 mg/kg/injection, schedule: Q07DX002 (ip), vehicle: Klucel (hydroxypropylcellulose) (HPC), higher = larger tumour) was 101 % of control. For the same compound, the T/C (endpoint: median tumor weight (est.), dose: 1.5 mg/kg/injection, schedule: Q07DX002 (ip), vehicle: Klucel (hydroxypropylcellulose) (HPC), higher = larger tumour) was 100 % of control and the T/C (endpoint: median tumor weight (est.), dose: 1.56 mg/kg/injection, schedule: Q07DX002 (ip), vehicle: Klucel (hydroxypropylcellulose) (HPC), higher = larger tumour) was 122 % of control.

C=C/C(C)=C/[C@H](C)C(=O)C[C@H](O)CC1CC(=O)NC(=O)C1 was tested, and the T/C [1] was 111 % of control, the T/C (endpoint: median tumor weight (est.), dose: 25.0 mg/kg/injection, schedule: Q07DX002 (ip), vehicle: saline with Tween-80, higher = larger tumour) was 102 % of control and the T/C (endpoint: median tumor weight (est.), dose: 50.0 mg/kg/injection, schedule: Q07DX002 (ip), vehicle: saline with Tween-80, higher = larger tumour) was 89 % of control. For the same compound, the T/C (endpoint: median tumor weight (est.), dose: 100.0 mg/kg/injection, schedule: Q07DX002 (ip), vehicle: saline with Tween-80, higher = larger tumour) was 102 % of control.

With COC(=O)C(F)C(Br)C(=O)OC (stereo unspecified) the T/C (endpoint: median tumor weight (est.), dose: 6.25 mg/kg/injection, schedule: Q07DX002 (ip), vehicle: saline with Tween-80, higher = larger tumour) was 95 % of control and 99 % of control and the T/C [1] was 63 % of control.
